Experimental findings from patent US20140363898A1, “METHOD FOR THE IDENTIFICATION OF BETA-SHEET AGGREGATED PROTEIN LIGANDS” (Hoffmann-La Roche Inc., priority 2011, published 2014) are described below.

The target of assay [1] is T1, aggregated Aβ40 (synthetic) (Homo sapiens, UniProt P05067).
T1 construct: Id; No. 4; host or cells: synthetic peptide
As to the kind of experiment: Thiazine-red fluorescence displacement assay on aggregated Aβ40. Conditions: displacement of Thiazin-red at the high affinity binding site; compound 0.3 nM to 10000 nM; 30 min room temperature; average of different experiments; read-out: aggr. Aβ40 IC50. On the procedure:
(§1) Recombinant human-microtubule associated protein Tau purified from E. coli is aggregated at a concentration of 5 μM with Arachidonic Acid (100 μM) in Tris 10 mM pH8, 24h at 37° C. Synthetic Aβ40 is aggregated with Arachidonic Acid (100 μM) in Tris 10 mM pH8, for three days at 37° C., under shaking at 150 rpm. […] In parallel, auto fluorescence of the compound is measured together with the aggregated proteins, but without Thiazin-red. As negative control, ligand and aggregated protein is used and as positive control, Thiazin-red, reference compound with known activity and aggregated protein is used. Assay is performed in Perkin Elmer OptiPlate 384, black, 45 ul assay volume, assay buffer is DPBS no CaCl2 no MgCl2 (GIBCO N. 14020). Tested compounds are diluted in DMSO and 2 μl is added to the assay (5% DMSO final). Assay is started by the addition of the aggregated protein (competitive condition). Plates are shortly shacked (1 min with Sterico variomag teleshake) and incubated for 30 min at room temperature. Measurement are done with En:Vision (Perkin Elmer), at Excitation 531 nm/Emission 595 nm.

For assay [2], the target named is T2, aggregated alpha-synuclein (human recombinant) (Homo sapiens, UniProt P37840).
T2 construct: made in house; host or cells: E. coli
As to the kind of experiment: Thiazine-red fluorescence displacement assay on aggregated alpha-synuclein. Conditions: displacement of Thiazin-red at the high affinity binding site; compound 0.3 nM to 10000 nM; 30 min room temperature; average of different experiments; read-out: aggr. α-syn IC50. The procedure:
Human recombinant-Alpha-synuclein-purified from E. coli is aggregated with Arachidonic Acid (100 μM) in Tris 10 mM pH 8, for 5 days at 37° C., under shaking at 150 rpm.
Thiazin-red will be added at the concentration corresponding to the Kd to the respective aggregated protein binding site, to induce a fluorescent signal that can be inhibited by the addition of a displacer compound
In parallel, auto fluorescence of the compound is measured together with the aggregated proteins, but without Thiazin-red. As negative control, ligand and aggregated protein is used and as positive control, Thiazin-red, reference compound with known activity and aggregated protein is used.
Assay is performed in Perkin Elmer OptiPlate 384, black, 45 ul assay volume, assay buffer is DPBS no CaCl2 no MgCl2 (GIBCO N. 14020). Tested compounds are diluted in DMSO and 2 μl is added to the assay (5% DMSO final). Assay is started by the addition of the aggregated protein (competitive condition). Plates are shortly shacked (1 min with Sterico variomag teleshake) and incubated for 30 min at room temperature. Measurement are done with En:Vision (Perkin Elmer), at Excitation 531 nm/Emission 595 nm.

Assay [3] addresses T3, aggregated Tau (recombinant human microtubule associated protein Tau) (Homo sapiens, UniProt P10636).
T3 construct: made in house; host or cells: E. coli
As to the kind of experiment: Thiazine-red fluorescence displacement assay on aggregated tau. As to conditions: displacement of Thiazin-red at the high affinity binding site; compound 0.3 nM to 10000 nM; 30 min room temperature; average of different experiments; read-out: aggr. TAU IC50. On the procedure:
as §1

T1 sequence (P05067 672-711): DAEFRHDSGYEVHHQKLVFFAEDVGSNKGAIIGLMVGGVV
T3 sequence (P10636 1-441 isoform P10636-8): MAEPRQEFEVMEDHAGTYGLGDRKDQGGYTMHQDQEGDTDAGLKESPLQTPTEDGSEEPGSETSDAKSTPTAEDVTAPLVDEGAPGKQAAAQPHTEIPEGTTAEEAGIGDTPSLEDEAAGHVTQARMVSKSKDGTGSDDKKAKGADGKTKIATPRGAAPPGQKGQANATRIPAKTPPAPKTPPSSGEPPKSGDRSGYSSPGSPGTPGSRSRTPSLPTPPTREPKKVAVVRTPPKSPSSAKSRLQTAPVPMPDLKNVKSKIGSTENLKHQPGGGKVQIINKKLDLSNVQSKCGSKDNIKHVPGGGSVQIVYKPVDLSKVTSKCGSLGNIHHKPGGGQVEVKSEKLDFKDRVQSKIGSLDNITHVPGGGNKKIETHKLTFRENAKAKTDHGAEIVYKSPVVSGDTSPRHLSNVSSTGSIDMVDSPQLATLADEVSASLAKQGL

Consider `O=C(O)c1cc(/C=C/c2ccc(/C=C/c3ccc(O)c(C(=O)O)c3)c(Br)c2)ccc1O` [BSB], for which the IC50 – broadly, the point on the concentration scale where inhibition reaches its midpoint – turned out to be 78.4 nM in assay [1], 36.3 nM in assay [2] and 18.4 nM in assay [3].
On the same counts, the results for `CC(=C(C#N)C#N)c1ccc2cc(N(C)CCF)ccc2c1` [FDDNP] are 1470 nM, 1180 nM and 1640 nM.
In the same order, the values of `Cc1cc(-c2ccc(/N=N/c3ccc4c(S(=O)(=O)O)cc(S(=O)(=O)O)c(N)c4c3O)c(C)c2)ccc1/N=N/c1ccc2c(S(=O)(=O)O)cc(S(=O)(=O)O)c(N)c2c1O` [Evans Blue] are 88.8 nM, 7.6 nM and 1 nM.
`CN(C)c1ccc(-c2cn3cc(I)ccc3n2)cc1` [IMPY]: the results for the IC50 in assay [2] and in assay [3] were 5700 nM and 2710 nM, respectively.
`COc1cc(/C=C/c2ccc(O)cc2)ccc1/C=C/c1ccc(O)cc1` [MeXO4]: the IC50 turned out to be 307 nM in assay [1], 239 nM in assay [2] and 494 nM in assay [3].
For the molecule `CNc1ccc(-c2nc3ccc(O)cc3s2)cc1` [PIB], the IC50 is 7020 nM in assay [2] and 3260 nM in assay [3].
As to `CN(C)c1ccc(C(=C2C=CC(=[N+](C)C)C=C2)c2ccc(N(C)C)cc2)cc1` [Crystal Violet], the IC50 in assay [1] was determined as 1280 nM; in assay [2] it was 1720 nM; in assay [3], 1550 nM.
As for `CNc1ccc(-c2ccc3ccccc3n2)cc1` [BF-158], the IC50 in assay [1], in assay [2] and in assay [3] was over 10000 nM in each case.
In the case of `CNc1ccc(-c2nc3ccc(O)cc3s2)cn1` [AZD2184], the results for the IC50 in assay [1], in assay [2] and in assay [3] were over 10000 nM, over 10000 nM and 9800 nM, respectively.
With `Nc1c(/N=N/c2ccc(-c3ccc(/N=N/c4cc(S(=O)(=O)O)c5ccccc5c4N)cc3)cc2)cc(S(=O)(=O)O)c2ccccc12` [Congo Red], the results for the IC50 in assay [1], in assay [2] and in assay [3] were 13.6 nM, 4.4 nM and 5.4 nM, respectively.
